According to patent US20240009436A1, “LOCALIZED […] OF […] […] AGENTS USING FOCUSED ULTRASOUND” (priority 2020, published 2024):

Key:
brain = details: cited from earlier work
[1] = system: vS1-vM1 circuit (wEPs in vM1); assay: Whisker-evoked potentials (wEPs) in vM1 after delivery to vS1 in anesthetized rats; type: in vivo, rat
Experimental: The AU-FUS sequence [AU-FUS (in vivo); see Table 1] was tested in vivo by manipulating a specific cortical network without opening the BBB. Rat vibrissa motor cortex (vM1) receives whisker sensory information (˜80%) through projections from vibrissa sensory cortex (vS1, “Barrel cortex”). When rodent whiskers are mechanically deflected, evoked activity propagates from brainstem via thalamus to vS1, and then to vM1. During simultaneous recordings the peaks of whisker-evoked potentials (wEPs) were observed first in vS1 and ˜3.0 ms later in vM1. It was tested whether inhibiting vS1 by the novel technique would suppress wEPs in vM1 in anesthetized rats. The FUS transducer was positioned above the intact skull and focused on vS1. Using a multielectrode array, the wEPs and the whisker-evoked multi-unit activity in vM1 were monitored online. In parallel, muscimol-loaded UC-carriers were continuously (i.v.) injected. The AU-FUS sequence was applied repeatedly on vS1 to aggregate the UC-carriers and to uncage muscimol. Muscimol is an agonist of ionotropic GABAA receptors, the major receptor responsible for fast inhibitory transmission in the brain, which […] the BBB.
The animal was anesthetized, a small craniotomy was performed over vM1 (TZ region) or V1 for inserting a recording probe 140, and a FUS transducer 136 was positioned on the intact skull above vS1 with the help of stereotaxic coordinates and coupled with sterile ultrasound gel and water collimator.
Muscimol-loaded UC-carriers were injected intravenously through the tail vein using an infusion pump 110. vM1 and V1 recordings were performed on separate cohorts.
Whiskers were cut to around 15 mm length. The 8-12 largest whiskers were inserted into a glass capillary tube which was attached to a piezo actuator (T223-H4CL-503X, Piezo Systems). The piezo actuator was shielded with a custom-made copper cover. The whiskers were deflected with 120 Hz cosine pulses (292 mm/s velocity, displaced 2.34 mm in 8 ms) which were generated in LabView (National Instruments) and converted into an analog signal (DAC NI, USB-6211) which then drove the piezo actuator. Stimulus presentation was synchronized with the electrophysiological recordings with a TTL signal at stimulus onset. Whiskers were continuously stimulated at a repetition rate of 0.3 Hz.
All electrophysiological data were recorded with a RHD2000 system (Intan Technologies) with 30 kS/s sampling rate. All stereotaxic coordinates were determined with respect to bregma. A 32 channel Neuronexus probe (A2x16-10 mm-100-500-177-A32, 15 or 50 μm thick) attached to a motorized 3D arm (StereoDrive-960HD, Neurostar), fixed outside of the stereotaxic frame, was inserted into the vM1 (Coordinates AP: 1-2 mm, ML: 0.5-1 mm, depending on the vasculature, DV: 1.5-2 mm from pia) at 50° to the coronal plane. The probe was initially inserted ˜250-500 μm below the cortical surface. The FUS transducer was integrated with an acoustic collimator which was filled with degassed and deionized water and contained a polystyrene film (McMaster-Carr) at the end. The collimator's shape was designed according to the FUS transducer's geometry so that it would not interfere with the FUS beam. This assembly was stereotaxically positioned such that the FUS focal volume was targeted to vS1 (Coordinates AP: −2.3 mm, ML: 6 mm, DV: 3.3 mm from skull surface) at a 30° angle with respect to the sagittal plane such that the focal volume of FUS beam targeted cortical layers of vS1. […]

[2] = rat barrel cortex; cited from earlier work
[3] = system: VEPs in primary visual cortex (V1); assay: Visually evoked potentials (VEPs) in V1 after delivery to vS1; type: in vivo, rat; details: muscimol delivered to vS1 using AU-FUS
Experimental: To rule out that the observed modulation of vM1 could be due to spreading of muscimol from vS1, signals were recorded from a cortical area close to vS1 but without significant connectivity with vS1: Muscimol was delivered to vS1 using AU-FUS, and the visually evoked potentials (VEPs) were measured from primary visual cortex (V1). […] V1 and vM1 recordings were done on separate cohorts. The same ultrasound parameters were used for both vS1-vM1 and vS1-V1 paradigms.
The protocol used for vS1-V1 was the same as vS1-vM1 paradigm with the following exceptions: FUS sonication coordinates were changed to AP: −2.3 mm, ML: 6.5 mm, DV: 3.3 mm from skull surface and FUS angle was changed from 30° to 34° to create space for electrode insertion to V1. A more lateral region of vS1 was sonicated to achieve better coupling with skull with the new angling of the FUS transducer. Electrode insertion coordinates were changed for V1 recording to AP: −5.5-6.0 mm, ML: 3.2-3.5 mm, DV: 1.6-2.0 mm to ensure that recording is done from cortical layers of V1. […] Instead of wEPs, VEPs were recorded by visual stimulation. […]
All electrophysiological data analysis was done in Python, version 3.6, using custom scripts. […] For wEP and VEP analysis, moving averages were calculated for a window step size of 180 whisker deflections/visual stimuli (moving step size is 1 deflection/visual stimulus). […]

[4] = i.v., without AU-FUS or UC-carriers

Compound: NCc1cc(=O)[nH]o1 [muscimol]
- amount of systemic muscimol required for brain inactivation (brain): ~1.6 mg/kg
- change of wEPs in vM1, baseline vs post-treatment ([1]; free muscimol (250 ng) and vehicle-loaded UC-carriers with AU-FUS (control)): No statistically significant changes
- systemic muscimol needed for comparable reduction of wEPs [1, 4]: at least 260 μg
- systemic muscimol needed for comparable reduction of wEPs, relative to measured payload of the UC-carriers [1, 4]: at least 1300 times
- time of maximum inhibition in vM1 ([1]; muscimol uncaged in vS1 by AU-FUS): ≤ 20 min
- change of wEPs in vM1, baseline vs post-treatment ([1]; systemic injection of free muscimol (250 ng) with AU-FUS (control)): No statistically significant changes
- diffusion coefficient D [2]: 8.7×10^−6 cm^2 s^−1
- change of VEPs recorded from V1 [3]: No statistically significant changes
